In ChEMBL document CHEMBL1145673, “Assay method for antihepatotoxic activity using galactosamine-induced cytotoxicity in primary-cultured hepatocytes” (J Nat Prod, 1983) one finds Activity data, which are given here for nine molecules.

Calls of active or inactive are those of the source. No cut-off for these calls is given here.

Data set [1] relates to Hepatocyte. As to the kind of experiment: Antihepatotoxic activity against 1.5 hrs galactosamine pretreatment-induced cytotoxicity in Wistar rat hepatocytes assessed as glutamic-pyruvic transaminase activity at 0.01 mg/ml after 30 hrs relative to control. In kind it is functional.
Data set [2] has as its system Hepatocyte. The data set can be described thus: Antihepatotoxic activity against 1.5 hrs galactosamine pretreatment-induced cytotoxicity in Wistar rat hepatocytes assessed as glutamic-pyruvic transaminase activity at 0.1 mg/ml after 30 hrs relative to control. It counts as functional.
The subject of data set [3] is Hepatocyte. As to the kind of experiment: Antihepatotoxic activity against 1.5 hrs galactosamine pretreatment-induced cytotoxicity in Wistar rat hepatocytes assessed as glutamic-pyruvic transaminase activity at 1 mg/ml after 30 hrs relative to control. In kind it is functional.
The test system of data set [4] is Hepatocyte. The data set can be described thus: Cytotoxicity in Wistar rat hepatocytes assessed as glutamic-pyruvic transaminase activity at 0.01 mg/ml after 30 hrs. In kind it is cell-based.
The subject of data set [5] is Hepatocyte. As to the kind of experiment: Cytotoxicity in Wistar rat hepatocytes assessed as glutamic-pyruvic transaminase activity at 0.1 mg/ml after 30 hrs. In kind it is cell-based.
Data set [6] relates to Hepatocyte. As to the kind of experiment: Cytotoxicity in Wistar rat hepatocytes assessed as glutamic-pyruvic transaminase activity at 1 mg/ml after 30 hrs. It counts as cell-based.
The test system of data set [7] is Hepatocyte. The data set can be described thus: Effect on 1.5 hrs galactosamine pretreatment-induced cytotoxicity in Wistar rat hepatocytes assessed as glutamic-pyruvic transaminase activity at 1 uM. In kind it is functional.
Data set [8] relates to Hepatocyte. The data set can be described thus: Effect on 1.5 hrs galactosamine pretreatment-induced cytotoxicity in Wistar rat hepatocytes at 1 uM. In kind it is functional, cell-based.

`O=C(/C=C/c1ccc(O)c(O)c1)O[C@@H]1C[C@@](OC(=O)/C=C/c2ccc(O)c(O)c2)(C(=O)O)C[C@@H](O)[C@@H]1O` [CYNARIN]: the Activity was 95% in the data set on Hepatocyte [1]; 84% with Hepatocyte [2]; 48% with Hepatocyte [3]; 20 IU/L in the data set with Hepatocyte [4]; 27 IU/L in the data set on Hepatocyte [5]; 51 IU/L in the data set with Hepatocyte [6].
For `COc1cc([C@@H]2c3cc4c(cc3C[C@H]3COC(=O)[C@@H]32)OCO4)cc(OC)c1OC` [DESOXYPODOPHYLLOTOXIN], the Activity is 93% in the data set with Hepatocyte [1]; 50% in the data set with Hepatocyte [2]; 92% in the data set with Hepatocyte [3]; 43 IU/L in the data set on Hepatocyte [4]; 35 IU/L with Hepatocyte [5]; 137 IU/L with Hepatocyte [6].
On to `C[C@@H]1C[C@H]2[C@@H]3CCC4=CC(=O)C=C[C@]4(C)[C@@]3(F)[C@@H](O)C[C@]2(C)[C@@]1(O)C(=O)CO` [DEXAMETHASONE], for which the Activity with Hepatocyte [7] is given as 96 IU/L. Further, in the data set with Hepatocyte [8], the result was inactive.
As to `CC1(C)[C@@H](O)CC[C@]2(C)[C@H]3C(=O)C=C4[C@@H]5C[C@@](C)(C(=O)O)CC[C@]5(C)CC[C@@]4(C)[C@]3(C)CC[C@@H]12` [ENOXOLONE], the Activity turned out to be 58% in the data set on Hepatocyte [2]; 27% in the data set with Hepatocyte [3]; 26 IU/L with Hepatocyte [4]; 16 IU/L in the data set on Hepatocyte [5]; 42 IU/L with Hepatocyte [6].
In the case of `CC1(C)[C@@H](O[C@H]2O[C@H](C(=O)O)[C@@H](O)[C@H](O)[C@H]2O[C@@H]2O[C@H](C(=O)O)[C@@H](O)[C@H](O)[C@H]2O)CC[C@]2(C)[C@H]3C(=O)C=C4[C@@H]5C[C@@](C)(C(=O)O)CC[C@]5(C)CC[C@@]4(C)[C@]3(C)CC[C@@H]12` [GLYCYRRHIZIN], the Activity in the data set with Hepatocyte [1] came to 103%; with Hepatocyte [2] it was 100%; in the data set on Hepatocyte [3], 24%; with Hepatocyte [4], 24 IU/L; in the data set with Hepatocyte [5] it was 59 IU/L; in the data set on Hepatocyte [6], 21 IU/L.
Turning to `CSCC[C@H](N)C(=O)O` [METHIONINE], the Activity in the data set on Hepatocyte [1] stood at 106%; with Hepatocyte [2] it was 113%; in the data set on Hepatocyte [3], 122%; in the data set with Hepatocyte [4] it was 24 IU/L; in the data set with Hepatocyte [5], 28 IU/L; in the data set on Hepatocyte [6], 25 IU/L.
As for `COc1cc(C(=O)O[C@H]2[C@@H]3C=CO[C@@H](O[C@@H]4O[C@H](CO)[C@@H](O)[C@H](O)[C@H]4O)[C@@H]3[C@@]3(CO)O[C@@H]23)ccc1O` [PICROSIDE II], the Activity with Hepatocyte [1] is 103%; with Hepatocyte [2], 101%; with Hepatocyte [3], 78%; in the data set with Hepatocyte [4], 27 IU/L; in the data set on Hepatocyte [5] it was 28 IU/L; in the data set on Hepatocyte [6], 40 IU/L.
For the molecule `O=C(/C=C/c1ccccc1)OC[C@H]1O[C@@H](O[C@@H]2OC=C[C@H]3[C@H](O)[C@@H]4O[C@]4(CO)[C@@H]23)[C@H](O)[C@@H](O)[C@@H]1O` [PICROSIDE I], the Activity in the data set on Hepatocyte [1] worked out at 96%; in the data set with Hepatocyte [2], 122%; in the data set on Hepatocyte [3], 111%; in the data set on Hepatocyte [4] it was 24 IU/L; in the data set on Hepatocyte [5], 50 IU/L; with Hepatocyte [6], 131 IU/L.
For the molecule `COc1cc(C2Oc3cc([C@H]4Oc5cc(O)cc(O)c5C(=O)[C@@H]4O)ccc3OC2CO)ccc1O` (some centres undefined) [SILIBININ], the Activity in the data set with Hepatocyte [1] is listed as 106%; in the data set with Hepatocyte [2], 103%; in the data set on Hepatocyte [3], 66%; in the data set with Hepatocyte [4], 29 IU/L; with Hepatocyte [5], 157 IU/L; with Hepatocyte [6], 93 IU/L.
